In ChEMBL document CHEMBL3632595, “Constituents of the seeds of Cassia tora with inhibitory activity on soluble expoxide hydrolease” (Bioorg Med Chem Lett, 2015):

Tests used:
[1] = target: T1, Bifunctional epoxide hydrolase 2 (Homo sapiens) (UniProt P34913); settings: at 50 µM
T1 sequence (whole entry): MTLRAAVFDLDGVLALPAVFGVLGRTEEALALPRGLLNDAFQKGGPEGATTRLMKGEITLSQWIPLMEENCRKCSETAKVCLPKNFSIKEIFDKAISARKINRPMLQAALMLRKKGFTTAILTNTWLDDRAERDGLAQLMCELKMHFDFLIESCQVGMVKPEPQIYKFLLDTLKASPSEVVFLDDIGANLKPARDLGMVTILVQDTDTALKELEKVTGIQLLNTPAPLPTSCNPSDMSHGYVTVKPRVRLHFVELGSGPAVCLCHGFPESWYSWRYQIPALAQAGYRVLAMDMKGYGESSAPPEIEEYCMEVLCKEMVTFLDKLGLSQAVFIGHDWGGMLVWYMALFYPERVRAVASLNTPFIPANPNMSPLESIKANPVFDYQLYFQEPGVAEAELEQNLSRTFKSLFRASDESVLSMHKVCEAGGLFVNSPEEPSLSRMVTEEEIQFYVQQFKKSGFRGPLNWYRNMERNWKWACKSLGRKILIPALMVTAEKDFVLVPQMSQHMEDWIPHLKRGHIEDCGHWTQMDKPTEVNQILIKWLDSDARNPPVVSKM
Description: Inhibition of sEH (unknown origin) assessed as 6-methoxy-2-naphthaldehyde formation at 50 uM by fluorometry assay using 40 uM cyano-(6-methoxy-naphthalen-2-yl)-methyl ester as substrate

[2] = target: T2, Bifunctional epoxide hydrolase 2 (Homo sapiens, UniProt P34913); test: Inhibition of sEH (unknown origin) assessed as 6-methoxy-2-naphthaldehyde formation by fluorometry assay using 40 uM cyano-(6-methoxy-naphthalen-2-yl)-methyl ester as substrate
T2 sequence (P34913 whole entry): T1 sequence (whole entry)

[3] = target: T2, Bifunctional epoxide hydrolase 2; test: Reversible-uncompetitive inhibition of sEH (unknown origin) by Lineweaver-Burk plot

Compound | inhibition [1] [%] | IC50 [2] [µM] | Ki [3] [µM]
COc1cc(O[C@@H]2O[C@H](CO)[C@@H](O)[C@H](O)[C@H]2O)c2c(O)c3c(=O)cc(C)oc3cc2c1 | 38.1 |  | 
Cc1cc(O)c2c(c1)C(=O)c1cccc(O)c1C2=O | 38.1 |  | 
COc1c(O[C@@H]2O[C@H](CO)[C@@H](O)[C@H](O)[C@H]2O)cc2c(c1O)C(=O)c1c(cc(C)c(O)c1OC)C2=O | 57.7 | 33 | 
COc1cc(O[C@@H]2O[C@H](CO)[C@@H](O)[C@H](O)[C@H]2O)c2c(OC)c(C(C)=O)c(O[C@H]3OC[C@@](O)(CO)[C@@H]3O)cc2c1 | 91.6 | 2.2 | 0.6
COc1cc(O)c2c(c1)C(=O)c1cc(C)cc(O)c1C2=O | 27.1 |  | 
COc1cc2c(c(OC)c1OC)C(=O)c1c(cc(C)c(O)c1OC)C2=O [CHRYSOOBTUSIN] | 59.8 | 26.3 | 
COc1c(O)cc2c(c1O)C(=O)c1c(cc(C)c(O)c1OC)C2=O | 0 |  | 
Cc1cc(O)c2c(c1)C(=O)c1cc(O)cc(O)c1C2=O [EMODIN] | 56.4 | 36.4 | 
COc1cc2c(c(OC)c1OC)C(=O)c1c(cc(C)c(O[C@@H]3O[C@H](CO)[C@@H](O)[C@H](O)[C@H]3O)c1OC)C2=O | 28.6 |  | 
COc1cc(O[C@@H]2O[C@H](CO[C@@H]3O[C@H](CO)[C@@H](O)[C@H](O)[C@H]3O)[C@@H](O)[C@H](O)[C@H]2O)c2c(O)c3c(=O)oc(C)cc3cc2c1 | 67.6 | 20 | 
COc1c(O)c(C)cc2c1C(=O)c1c(O)cccc1C2=O | 2.6 |  | 
COc1ccc2c(c1O)C(=O)c1c(cc(C)c(O)c1OC)C2=O | 54.2 | 35.7 | 
COc1cc(O[C@@H]2O[C@H](CO[C@@H]3O[C@H](CO)[C@@H](O)[C@H](O)[C@H]3O)[C@@H](O)[C@H](O)[C@H]2O)c2c(c1)C(=O)c1cc(C)cc(O)c1C2=O | 51 | 40.6 | 
COc1cc2c(c(O)c1OC)C(=O)c1c(cc(C)c(O)c1OC)C2=O | 55.1 | 26.4 | 
COc1c(O[C@@H]2O[C@H](CO)[C@@H](O)[C@H](O)[C@H]2O)c(C)cc2c1C(=O)c1c(O)cccc1C2=O | 50.6 | 24.3 | 
COc1cc(O[C@@H]2O[C@H](CO[C@@H]3O[C@H](CO)[C@@H](O)[C@H](O)[C@H]3O)[C@@H](O)[C@H](O)[C@H]2O)c2c(O)c3c(=O)cc(C)oc3cc2c1 | 50.9 | 37.5 | 
